The source of these data is US9765089B2, “ACC inhibitors and uses thereof” (Gilead Apollo, LLC, priority 2013, dated 2017).

Bounds are passed on as bounds.

Chain of ACC2 (Homo sapiens, UniProt O00763) (O00763 whole entry, species assumed): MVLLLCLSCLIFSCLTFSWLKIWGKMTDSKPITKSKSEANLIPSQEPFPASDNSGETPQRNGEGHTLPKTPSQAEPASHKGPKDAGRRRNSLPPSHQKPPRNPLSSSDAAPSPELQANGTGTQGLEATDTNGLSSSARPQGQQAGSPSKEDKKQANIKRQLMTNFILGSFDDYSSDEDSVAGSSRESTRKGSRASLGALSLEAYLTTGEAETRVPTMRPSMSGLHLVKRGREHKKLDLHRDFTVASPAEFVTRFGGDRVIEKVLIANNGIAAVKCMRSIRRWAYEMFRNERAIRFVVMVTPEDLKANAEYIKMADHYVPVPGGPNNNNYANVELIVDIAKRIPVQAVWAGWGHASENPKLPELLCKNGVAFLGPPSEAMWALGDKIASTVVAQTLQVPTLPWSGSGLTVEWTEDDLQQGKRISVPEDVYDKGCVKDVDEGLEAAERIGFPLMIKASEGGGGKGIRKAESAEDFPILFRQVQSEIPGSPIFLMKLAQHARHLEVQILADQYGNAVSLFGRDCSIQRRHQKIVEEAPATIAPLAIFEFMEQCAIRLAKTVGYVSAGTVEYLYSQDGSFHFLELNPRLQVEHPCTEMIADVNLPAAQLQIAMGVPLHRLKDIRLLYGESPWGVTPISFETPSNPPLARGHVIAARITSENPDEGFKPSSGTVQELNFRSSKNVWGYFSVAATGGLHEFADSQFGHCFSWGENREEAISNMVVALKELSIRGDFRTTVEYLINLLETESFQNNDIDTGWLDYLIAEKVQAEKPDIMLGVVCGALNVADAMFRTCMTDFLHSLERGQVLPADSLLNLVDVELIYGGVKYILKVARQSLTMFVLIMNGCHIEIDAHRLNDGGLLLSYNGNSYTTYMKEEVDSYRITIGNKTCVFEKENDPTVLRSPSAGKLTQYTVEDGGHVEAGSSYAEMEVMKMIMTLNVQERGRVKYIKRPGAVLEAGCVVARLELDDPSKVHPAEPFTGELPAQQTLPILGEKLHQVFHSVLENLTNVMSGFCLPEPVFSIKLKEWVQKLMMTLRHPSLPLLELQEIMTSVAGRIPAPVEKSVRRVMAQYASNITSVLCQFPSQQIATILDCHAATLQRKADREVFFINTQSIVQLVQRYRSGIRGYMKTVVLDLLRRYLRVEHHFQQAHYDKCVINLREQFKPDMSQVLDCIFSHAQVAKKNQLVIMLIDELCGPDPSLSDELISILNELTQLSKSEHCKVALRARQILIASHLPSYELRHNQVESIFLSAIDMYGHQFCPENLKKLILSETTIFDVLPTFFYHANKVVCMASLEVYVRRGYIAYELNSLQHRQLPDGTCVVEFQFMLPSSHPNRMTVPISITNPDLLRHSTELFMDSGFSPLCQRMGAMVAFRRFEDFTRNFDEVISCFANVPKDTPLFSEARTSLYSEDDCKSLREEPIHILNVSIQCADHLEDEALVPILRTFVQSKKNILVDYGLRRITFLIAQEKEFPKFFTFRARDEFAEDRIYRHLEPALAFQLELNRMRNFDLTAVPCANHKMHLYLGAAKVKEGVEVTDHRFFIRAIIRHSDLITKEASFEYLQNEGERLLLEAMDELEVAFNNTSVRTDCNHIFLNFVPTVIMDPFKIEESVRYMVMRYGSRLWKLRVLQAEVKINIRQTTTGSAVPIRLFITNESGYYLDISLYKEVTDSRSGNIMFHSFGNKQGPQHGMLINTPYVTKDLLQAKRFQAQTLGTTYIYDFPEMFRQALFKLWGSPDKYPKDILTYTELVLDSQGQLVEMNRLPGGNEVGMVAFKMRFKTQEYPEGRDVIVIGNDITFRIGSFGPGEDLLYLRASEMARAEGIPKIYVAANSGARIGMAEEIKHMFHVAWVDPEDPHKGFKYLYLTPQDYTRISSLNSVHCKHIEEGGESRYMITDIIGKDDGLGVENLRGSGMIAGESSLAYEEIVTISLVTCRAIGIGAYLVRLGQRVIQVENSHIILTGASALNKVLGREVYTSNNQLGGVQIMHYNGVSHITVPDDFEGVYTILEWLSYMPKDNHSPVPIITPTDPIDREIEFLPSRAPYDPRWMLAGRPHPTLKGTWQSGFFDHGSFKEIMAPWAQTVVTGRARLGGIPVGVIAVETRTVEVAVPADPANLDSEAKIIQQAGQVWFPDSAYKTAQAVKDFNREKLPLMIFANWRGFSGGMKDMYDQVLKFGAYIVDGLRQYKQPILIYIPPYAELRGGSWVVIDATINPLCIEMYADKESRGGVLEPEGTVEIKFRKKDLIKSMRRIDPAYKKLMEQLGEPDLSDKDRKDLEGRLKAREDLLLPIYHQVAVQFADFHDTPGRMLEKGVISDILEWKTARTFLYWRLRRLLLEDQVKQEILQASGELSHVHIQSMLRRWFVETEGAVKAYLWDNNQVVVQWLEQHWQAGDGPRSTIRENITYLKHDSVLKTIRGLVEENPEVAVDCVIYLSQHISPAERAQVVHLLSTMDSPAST

One test deals with ACC2 (Homo sapiens, UniProt O00763). The test can be described thus: in vitro ACC2 inhibition assay (ADP-Glo). The format is biochemical. As to conditions: 5 nM ACC2, 20 μM ATP, 20 μM acetyl-CoA, 60 min room temperature, luminescence. How it is done:
In Vitro Acetyl-CoA Carboxylase (ACC) Inhibition Assay
An exemplary procedure for the in vitro ACC inhibition assay, which can be used to determine the inhibitory action of compounds of the invention toward either ACCT or ACC2, follows. The ADP-Glo™ Kinase Assay kit from Promega is used. The ADP-Glo™ Kinase Assay is a luminescent ADP detection assay to measure enzymatic activity by quantifying the amount of ADP produced during an enzyme reaction. The assay is performed in two steps; first, after the enzyme reaction, an equal volume of ADP-Glo™ Reagent is added to terminate the reaction and deplete the remaining ATP. Second, the Kinase Detection Reagent is added to simultaneously convert ADP to ATP and allow the newly synthesized ATP to be measured using a luciferase/luciferin reaction. Luminescence can be correlated to ADP concentrations by using an ATP-to-ADP conversion curve. The detailed procedure is as follows. 50 μL of the compound being tested (600 uM in DMSO) is added to a 384-well dilution plate. The compound is diluted 1:3 in succession in DMSO for each row for 11 wells. […] is added to 384-well white Optiplate assay plate. 0.5 μL diluted compound solution in each column from step 2 is added to the assay plate, each row containing 2 replicates. For the last 2 rows, add 0.5 μL negative control (DMSO) in one row and 0.5 μL positive control (compound I-97) in the other. The plates are incubated at room temperature for 15 minutes. 5 μL substrate working solution is added to each well to initiate reaction. Final ACC2 reaction concentrations consist of: 5 nM ACC2, 20 μM ATP, 20 μM acetyl-CoA, 12 mM NaHCO3, 0.01% Brij35, 2 mM DTT, 5% DMSO, test compound concentrations: 30 μM, 10 μM, 3.33 μM, 1.11 μM, 0.37 μM, 0.123 μM, 0.0411 μM, 0.0137 μM, 0.00457 μM, 0.00152 μM, and 0.00051 μM. Plates are incubated at room temperature for 60 minutes. 10 μL ADP glo reagent is added. Plates are incubated at room temperature for 40 minutes. 20 μL kinase detection reagent is added. Plates are incubated at room temperature for 40 minutes, then read on a Perkin Elmer EnVision 2104 plate reader for luminescence as Relative Light Units (RLU).
Data for each concentration, as well as the positive and negative controls are averaged, and the standard deviation calculated. Percent inhibition is calculated by the formula: 100×(average negative control−compound)/(average negative control−average positive control). The IC50 for each compound is calculated by fitting the data with a non-linear regression equation: Y=Bottom+(Top-Bottom)/(1+10^((Log IC50−X)*HillSlope)), where X is the log of compound concentration and Y is percent inhibition.
The compound numbers correspond to the compound numbers in Table 1. Compounds having an activity designated as “AAA” provided an IC50≦0.1 μM; compounds having an activity designated as “AA” provided an IC50≦1 μM; compounds having an activity designated as “A” provided an IC50≦5 μM; compounds having an activity designated as “B” provided an IC50 of 5-20 μM; compounds having an activity designated as “C” provided an IC50 of 20-50 μM; and compounds having an activity designated as “D” provided an IC50≧50 μM
As to “2-(4-((R)-2-(5-fluoro-2-methoxyphenyl)-2-((tetrahydro-2H-pyran-4-yl)oxy)ethyl)-7-methyl-6-(oxazol-2-yl)-1,1-dioxido-3-oxo-3,4,4a,7a-tetra-hydro-2H-thieno[2,3-e][1,2,4]thiadiazin-2-yl)acetic acid [Compound I-41]”, the IC50 is no more than 0.1 µM.

The compound `COc1ccccc1CCN1c2sc(-c3ncco3)c(C)c2C(=O)N(CC(=O)O)S1(=O)=O` [Compound I-43, 2-(1-(2-methoxyphenethyl)-5-methyl-6-(oxazol-2-yl)-2,2-dioxido-4-oxo-1H-thieno[2,3-c][1,2,6]thiadiazin-3(4H)-yl)acetic acid] yielded a half-inhibitory concentration (IC50) of 5 to 20 µM. Same read-out and setting: for `COc1ccc(F)cc1[C@H](CN1C(=O)N(C(C)(C)C(=O)O)S(=O)(=O)c2c1sc(-c1ncco1)c2C)OC1CCOCC1` [Compound I-42, (R)-2-(4-(2-(5-fluoro-2-methoxyphenyl)-2-((tetrahydro-2H-pyran-4-yl)oxy)ethyl)-7-methyl-6-(oxazol-2-yl)-1,1-dioxido-3-oxo-3,4-dihydro-2H-thieno[2,3-e][1,2,4]thiadiazin-2-yl)-2-methylpropanoic acid] the value was no more than 5 µM; for `COc1ccccc1CCc1nn(CC(=O)O)c(=O)c2c(C)c(-c3ncco3)sc12` [Compound I-49, 2-(7-(2-methoxyphenethyl)-3-methyl-2-(oxazol-2-yl)-4-oxothieno[2,3-d]pyridazin-5(4H)-yl)acetic acid], no less than 50 µM; for `COc1ccccc1CCN1c2sc(-c3ncco3)c(C)c2C(=O)N(CC(N)=O)S1(=O)=O` [Compound I-44, 2-(1-(2-methoxyphenethyl)-5-methyl-6-(oxazol-2-yl)-2,2-dioxido-4-oxo-1H-thieno[2,3-c][1,2,6]thiadiazin-3(4H)-yl)acetamide], 5 to 20 µM. The compound `CCOC(=O)c1sc2c(c1C)S(=O)(=O)N(C(C)(C)C(=O)OCc1ccccc1)C(=O)N2C[C@H](OC(C)C)c1cc(F)ccc1OC` [Compound I-48, (R)-ethyl 2-(1-(benzyloxy)-2-methyl-1-oxopropan-2-yl)-4-(2-(5-fluoro-2-methoxyphenyl)-2-isopropoxyethyl)-7-methyl-3-oxo-3,4-dihydro-2H-thieno[2,3-e][1,2,4]thiadiazine-6-carboxylate 1,1-dioxide] registered an IC50 of 5 to 20 µM. Compound `COc1ccccc1[C@H](CN1C(=O)N(C(C)(C)C(=O)O)S(=O)(=O)c2c1sc(-c1ncco1)c2C)O[C@H]1CC[C@@H](O)CC1` [Compound I-47, 2-(4-((R)-2-(((1s,4S)-4-hydroxycyclohexyl)oxy)-2-(2-methoxyphenyl)ethyl)-7-methyl-6-(oxazol-2-yl)-1,1-dioxido-3-oxo-3,4-dihydro-2H-thieno[2,3-e][1,2,4]thiadiazin-2-yl)-2-methylpropanoic acid] displayed an IC50 of 5 to 20 µM.

`COc1ccccc1[C@H](CN1C(=O)N(C(C)(C)C(=O)O)S(=O)(=O)c2c1sc(-c1ncco1)c2C)OC1CCOCC1` [Compound I-46, (R)-2-(4-(2-(2-methoxyphenyl)-2-((tetrahydro-2H-pyran-4-yl)oxy)ethyl)-7-methyl-6-(oxazol-2-yl)-1,1-dioxido-3-oxo-3,4-dihydro-2H-thieno[2,3-e][1,2,4]thiadiazin-2-yl)-2-methylpropanoic acid] showed a half-maximal inhibitory concentration (IC50) of 5 to 20 µM. Same read-out and setting: for `COc1ccc(F)cc1[C@H](CN1C(=O)N(C(C)(C)C(=O)O)S(=O)(=O)c2c1sc(-c1ncco1)c2C)OC(C)C` [Compound I-45, (R)-2-(4-(2-(5-fluoro-2-methoxyphenyl)-2-isopropoxyethyl)-7-methyl-6-(oxazol-2-yl)-1,1-dioxido-3-oxo-3,4-dihydro-2H-thieno[2,3-e][1,2,4]thiadiazin-2-yl)-2-methylpropanoic acid] the value was 5 to 20 µM.

A further test relates to ACC1.
Test: not given
The following applies: ACC1 isolated from rat, mouse, monkey and human; cited from earlier work.
In the case of `O=C(c1c2ccccc2cc2ccccc12)N1CCC(N2CCC[C@@H](C(=O)N3CCOCC3)C2)CC1` [CP-640186], the IC50 is roughly 0.06 µM.

The subject of the next test is ACC2.
Test: not given
The following applies: ACC2 isolated from rat, mouse, monkey and human; cited from earlier work.
On to `O=C(c1c2ccccc2cc2ccccc12)N1CCC(N2CCC[C@@H](C(=O)N3CCOCC3)C2)CC1` [CP-640186], for which the IC50 is roughly 0.06 µM.

The term IC50 denotes the midpoint of a concentration-inhibition curve.
